Test results as given in patent US20050043346A1, “Pyridylpyrrole derivatives active as kinase inhibitors” (Pharmacia Italia S.p.A., priority 2003, published 2005).
Several values for one entry are separate records, joined by “and”; a condition that tells them apart may be missing. Equal entries are not always repeated. Structures can show the parent of a compound that is named as a salt.

Assays:
[1] = molecular target: Cdc7/Dbf4 (Homo sapiens, UniProt O00311); experiment: Inhibition assay of Cdc7/Dbf4 activity (Dowex resin capture, MCM2 substrate); type: biochemical; details: Cdc7/Dbf4, MCM2 substrate 6 μM, ATP 2 μM
Procedure: The inhibiting activity of putative Cdc7 inhibitors and the potency of selected compounds is determined through a method of assay based on the use of Dowex resin capture technology. The assay consists of the transfer of radioactivity labeled phosphate moiety by the kinase to an acceptor substrate. The resulting 33P-labeled product is separated from unreacted tracer, transferred into a scintillation cocktail and light emitted is measured in a scintillation counter.
The inhibition assay of Cdc7/Dbf4 activity is performed according to the following protocol. The MCM2 substrate is trans-phosphorylated by the Cdc7/Dbf4 complex in the presence of ATP traced with γ^33-ATP. The reaction is stopped by addition of Dowex resin in the presence of formic acid. Dowex resin particles capture unreacted γ^33-ATP and drag it to the bottom of the well while ^33P phosphorylated MCM2 substrate remains in solution. The supernatant is collected, transferred into Optiplate plates and the extent of substrate phosphorylation is evaluated by β counting.
The inhibition assay of Cdc7/Dbf4 activity was performed in 96 wells plate according to the following protocol.
The solvent for test compounds contained 3% DMSO. (final concentration 1%) • 10 μl substrate MCM2 (6 μM final concentration), a mixture of cold ATP (2 μM final concentration) and radioactive ATP (1/5000 molar ratio with cold ATP). • 10 μl enzyme (Cdc7/Dbf4, 2 nM final concentration) that started the reaction. The buffer of the reaction consisted in 50 mM HEPES pH 7.9 containing 15 mM MgCl2, 2 mM DTT, 3 μM NaVO3, 2 mM glycerophosphate and 0.2 mg/ml BSA.
After incubation for 60 minutes at room temperature, the reaction was stopped by adding to each well 150 μl of Dowex resin in the presence of 150 mM formic acid. After another 60 min incubation, 50 μL of suspension were withdrawn and transferred into 96-well OPTIPLATEs containing 150 μl of MicroScint 40 (Packard); after 5-10 minutes shaking the plates were read for 1 min in a Packard TOP-Count radioactivity reader.
Experimental data were analyzed by the computer program Assay Explorer using the four parameter logistic equation: y=bottom+(top−bottom)/(1+10^((log IC50−x)*slope)) where x is the logarithm of the inhibitor concentration, y is the response; y starts at bottom and goes to top with a sigmoid shape.

[2] = molecular target: cdk2/Cyclin A (Homo sapiens, UniProt P24941); experiment: Inhibition assay of cdk2/Cyclin A activity (SPA); type: biochemical; details: Cyclin A/CDK2 complex, histone H1 substrate, 10 μM ATP
Procedure: The inhibiting activity of putative cdk/cyclin inhibitors and the potency of selected compounds may be determined through a method of assay based on the use of the SPA technology (Amersham Pharmacia Biotech).
The assay consists of the transfer of radioactivity labelled phosphate moiety by the kinase to a biotinylated substrate. The resulting 33P-labelled biotinylated product is allowed to bind to streptavidin-coated SPA beads (biotin capacity 130 pmol/mg), and light emitted was measured in a scintillation counter.
Kinase reaction: 4 μM in house biotinylated histone H1 (Sigma #H-5505) substrate, 10 μM ATP (0.1 microCi P^33γ-ATP), 1.1 nM Cyclin A/CDK2 complex, inhibitor in a final volume of 30 μl buffer (TRIS HCl 10 mM pH 7.5, MgCl2 10 mM, DTT 7.5 mM+0.2 mg/ml BSA) were added to each well of a 96 U bottom. After incubation for 60 min at room temperature, the reaction was stopped by addition of 100 μl PBS buffer containing 32 mM EDTA, 500 μM cold ATP, 0.1% Triton X100 and 10 mg/ml streptavidin coated SPA beads. After 20 min incubation, 110 μL of suspension were withdrawn and transferred into 96-well OPTIPLATEs containing 100 μl of 5M CsCl. After 4 hours, the plates were read for 2 min in a Packard TOP-Count radioactivity reader.
IC50 determination: inhibitors were tested at different concentrations ranging from 0.0015 to 10 μM. […]

Sequence of Cdc7/Dbf4 (O00311 whole entry): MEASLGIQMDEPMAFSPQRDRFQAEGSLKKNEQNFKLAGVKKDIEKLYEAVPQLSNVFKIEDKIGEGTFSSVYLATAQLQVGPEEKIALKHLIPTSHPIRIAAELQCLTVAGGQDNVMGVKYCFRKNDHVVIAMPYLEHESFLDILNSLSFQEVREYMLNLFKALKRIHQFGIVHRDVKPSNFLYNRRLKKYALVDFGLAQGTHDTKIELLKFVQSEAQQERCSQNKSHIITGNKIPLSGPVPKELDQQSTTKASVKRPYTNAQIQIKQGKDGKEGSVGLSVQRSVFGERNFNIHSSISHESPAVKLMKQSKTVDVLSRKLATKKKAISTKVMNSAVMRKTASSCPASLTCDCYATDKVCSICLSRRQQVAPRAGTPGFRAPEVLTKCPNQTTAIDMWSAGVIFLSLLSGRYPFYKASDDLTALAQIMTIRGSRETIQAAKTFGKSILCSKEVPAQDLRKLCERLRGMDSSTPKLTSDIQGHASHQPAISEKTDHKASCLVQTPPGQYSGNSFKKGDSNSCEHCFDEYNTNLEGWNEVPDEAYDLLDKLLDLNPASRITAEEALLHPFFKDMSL
Sequence of Cdc7/Dbf4 (Q9UBU7 whole entry partner): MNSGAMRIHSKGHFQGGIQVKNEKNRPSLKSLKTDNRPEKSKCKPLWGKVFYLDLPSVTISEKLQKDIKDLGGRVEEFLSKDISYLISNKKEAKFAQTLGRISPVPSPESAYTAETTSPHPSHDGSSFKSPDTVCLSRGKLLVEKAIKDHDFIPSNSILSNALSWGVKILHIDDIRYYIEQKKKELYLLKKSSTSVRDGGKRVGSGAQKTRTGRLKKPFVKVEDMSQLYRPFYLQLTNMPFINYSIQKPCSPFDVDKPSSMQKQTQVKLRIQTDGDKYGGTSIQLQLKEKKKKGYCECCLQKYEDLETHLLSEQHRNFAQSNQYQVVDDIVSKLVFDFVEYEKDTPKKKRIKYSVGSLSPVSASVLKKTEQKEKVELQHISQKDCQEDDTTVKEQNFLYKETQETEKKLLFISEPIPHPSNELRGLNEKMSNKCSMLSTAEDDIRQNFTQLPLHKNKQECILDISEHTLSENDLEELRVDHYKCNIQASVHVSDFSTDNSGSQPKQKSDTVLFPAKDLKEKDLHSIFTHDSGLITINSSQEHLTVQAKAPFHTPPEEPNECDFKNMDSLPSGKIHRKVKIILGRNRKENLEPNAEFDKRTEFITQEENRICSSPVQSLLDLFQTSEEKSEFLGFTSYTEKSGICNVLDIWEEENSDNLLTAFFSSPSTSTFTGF

Row | SMILES | IC50 [1] | IC50 [2] [nM]
1 | CC1CNC(=O)c2cc(-c3ccncc3)[nH]c21 [(7R,7S)-7-methyl-2-pyridin-4-yl-1,5,6,7-tetrahydro-4H-pyrrolo[3,2-c]pyridin-4-one hydrochloride] | 5 nM | –
2 | CCC(C)C1CNC(=O)c2cc(-c3ccncc3)[nH]c21 [(7R,7S)-7-sec-butyl-2-pyridin-4-yl-1,5,6,7-tetrahydro-4H-pyrrolo[3,2-c]pyridin-4-one] | 3 nM | –
3 | CC(C)C1CNC(=O)c2cc(-c3ccncc3)[nH]c21 [(7R,7S)-7-isopropyl-2-pyridin-4-yl-1,5,6,7-tetrahydro-4H-pyrrolo[3,2-c]pyridin-4-one] | 20 nM | –
4 | CC(C)CC1CNC(=O)c2cc(-c3ccncc3)[nH]c21 [(7R,7S)-7-isobutyl-2-pyridin-4-yl-1,5,6,7-tetrahydro-4H-pyrrolo[3,2-c]pyridin-4-one hydrochloride] | 5 nM | –
5 | CCC1CNC(=O)c2cc(-c3ccncc3F)[nH]c21 [(7R,7S)-2-(3-fluoropyridin-4-yl)-7-ethyl-1,5,6,7-tetrahydro-4H-pyrrolo[3,2-c]pyridin-4-one] | 1 nM | –
6 | O=C1NCCc2[nH]c(-c3ccncc3F)cc21 [2-(3-fluoropyridin-4-yl)-1,5,6,7-tetrahydro-4H-pyrrolo[3,2-c]pyridin-4-one hydrochloride] | 8 nM | –
7 | O=C1NC(Cc2ccccc2)Cc2[nH]c(-c3ccncc3)cc21 [(6R,6S)-6-benzyl-2-pyridin-4-yl-1,5,6,7-tetrahydro-4H-pyrrolo[3,2-c]pyridin-4-one] | 16 nM | –
8 | CC(C)CC1CNC(=O)c2cc(-c3ccncc3F)[nH]c21 [(7R,7S)-2-(3-fluoropyridin-4-yl)-7-isobutyl-1,5,6,7-tetrahydro-4H-pyrrolo[3,2-c]pyridin-4-one] | 4 nM | –
9 | O=C1NCC(Cc2ccccc2)c2[nH]c(-c3ccncc3)cc21 [(7R,7S)-7-benzyl-2-pyridin-4-yl-1,5,6,7-tetrahydro-4H-pyrrolo[3,2-c]pyridin-4-one] | 17 nM | –
10 | O=C1NC(C2CC2)Cc2[nH]c(-c3ccncc3)cc21 [(6R,6S)-6-cyclopropyl-2-pyridin-4-yl-1,5,6,7-tetrahydro-4H-pyrrolo[3,2-c]pyridin-4-one] | 2 nM | –
11 | O=C1NC(CCc2ccccc2)Cc2[nH]c(-c3ccncc3)cc21 [(6R,6S)-6-(2-phenylethyl)-2-pyridin-4-yl-1,5,6,7-tetrahydro-4H-pyrrolo[3,2-c]pyridin-4-one hydrochloride] | 26 nM | –
12 | O=C1NC(C2CCCCC2)Cc2[nH]c(-c3ccncc3)cc21 [(6R,6S)-6-cyclohexyl-2-pyridin-4-yl-1,5,6,7-tetrahydro-4H-pyrrolo[3,2-c]pyridin-4-one] | 8 nM | –
13 | CC(C)C1CNC(=O)c2cc(-c3ccncc3F)[nH]c21 [(7R,7S)-2-(3-fluoropyridin-4-yl)-7-isopropyl-1,5,6,7-tetrahydro-4H-pyrrolo[3,2-c]pyridin-4-one] | 3 nM | –
14 | CC(C)C1Cc2[nH]c(-c3ccncc3)cc2C(=O)N1 [(6R,6S)-6-isopropyl-2-pyridin-4-yl-1,5,6,7-tetrahydro-4H-pyrrolo[3,2-c]pyridin-4-one hydrochloride] | 9 nM | –
15 | O=C1NCC2(CC2)c2[nH]c(-c3ccncc3)cc21 [2′-pyridin-4-yl-5′,6′-dihydrospiro[cyclopropane-1,7′-pyrrolo[3,2-c]pyridin]-4′(1′H)-one] | 2 nM | –
16 | C[C@H]1Cc2[nH]c(-c3ccncc3)cc2C(=O)N1 [(6S)-6-methyl-2-pyridin-4-yl-1,5,6,7-tetrahydro-4H-pyrrolo[3,2-c]pyridin-4-one] | 14 nM | –
17 | CC1CNC(=O)c2cc(-c3ccncc3)[nH]c21 (single isomer, unassigned) [(7R or 7S)-7-methyl-2-pyridin-4-yl-1,5,6,7-tetrahydro-4H-pyrrolo[3,2-c]pyridin-4-one] | 4 nM and 7 nM | –
18 | CC1(C)CNC(=O)c2cc(-c3ccncc3)[nH]c21 [7,7-dimethyl-2-pyridin-4-yl-1,5,6,7-tetrahydro-4H-pyrrolo[3,2-c]pyridin-4-one hydrochloride] | 3 nM | –
19 | O=C1NC(Cc2ccccc2)Cc2[nH]c(-c3ccncc3)cc21 (single isomer, unassigned) [(6R or 6S)-6-benzyl-2-pyridin-4-yl-1,5,6,7-tetrahydro-4H-pyrrolo[3,2-c]pyridin-4-one] | 20 nM and 9 nM | –
20 | O=C1NCCc2[nH]c(-c3ccnc4[nH]ccc34)cc21 [2-(1H-pyrrolo[2,3-b]pyridin-4-yl)-1,5,6,7-tetrahydro-4H-pyrrolo[3,2-c]pyridin-4-one hydrochloride] | 16 nM | –
21 | Cc1c(-c2ccncc2)[nH]c2c1C(=O)NCC2 [3-methyl-2-pyridin-4-yl-1,5,6,7-tetrahydro-4H-pyrrolo[3,2-c]pyridin-4-one hydrochloride] | 3 nM | –
22 | O=C1NCCc2[nH]c(-c3ccnc(NC4CCCC4)c3)cc21 [2-[2-(cyclopentylamino)pyridin-4-yl]-1,5,6,7-tetrahydro-4H-pyrrolo[3,2-c]pyridin-4-one] | – | 40
23 | CCC1(CC)CNC(=O)c2cc(-c3ccncc3)[nH]c21 [7,7-diethyl-2-pyridin-4-yl-1,5,6,7-tetrahydro-4H-pyrrolo[3,2-c]pyridin-4-one hydrochloride] | 7 nM | –
